Assay results as given in ChEMBL document CHEMBL2390846, “Small-molecule pyrimidine inhibitors of the cdc2-like (Clk) and dual specificity tyrosine phosphorylation-regulated (Dyrk) kinases: development of chemical probe ML315” (Bioorg Med Chem Lett, 2013).
pIC50: −log10 of the molar value. ≈ marks a conversion by molar mass, not a printed value.

Columns and labels:
[1] = molecular target: Dual specificity protein kinase CLK1 (Homo sapiens, UniProt P49759)
[2] = molecular target: Dual specificity protein kinase CLK2 (Homo sapiens, UniProt P49760)
[3] = molecular target: Dual specificity tyrosine-phosphorylation-regulated kinase 1B (Homo sapiens, UniProt Q9Y463)
[4] = molecular target: T1, Dual specificity tyrosine-phosphorylation-regulated kinase 1A (Homo sapiens, UniProt Q13627); assay: Inhibition of DYRK1A (unknown origin) by bioluminescence assay; conditions: read-out: IC50
[5] = molecular target: T2, Dual specificity protein kinase CLK4 (Homo sapiens, UniProt Q9HAZ1)
[6] = molecular target: Dual specificity protein kinase CLK3 (Homo sapiens, UniProt P49761)
[7] = molecular target: T2, Dual specificity protein kinase CLK4; assay: Inhibition of CLK4 (unknown origin) by bioluminescence assay; conditions: read-out: IC50
[8] = molecular target: T1, Dual specificity tyrosine-phosphorylation-regulated kinase 1A
[9] = Plasma protein binding in mouse at 1 uM; assay type: ADME, cell-free; conditions: read-out: PPB (converted)
[10] = Aqueous solubility of the compound in PBS at pH 7.4; assay type: physicochemical
[11] = molecular target: hERG (KCNH2) (Homo sapiens, UniProt Q12809); assay: Inhibition of human ERG at 10 uM relative to control
[12] = Permeability of the compound in aqueous buffer at donor compartment pH 7.4 and acceptor compartment pH 7.4 by PAMPA; assay type: ADME
[13] = Solubility of the compound in assay media at pH 7.5; assay type: physicochemical
[14] = Metabolic stability in human liver microsomes assessed as compound remaining at 1 hr; assay type: ADME, Microsome; conditions: read-out: Stability
[15] = Metabolic stability in mouse plasma assessed as compound remaining at 3 hrs; assay type: ADME, cell-free; conditions: read-out: Stability
[16] = Permeability of the compound in aqueous buffer at donor compartment pH 5.0 and acceptor compartment pH 7.4 by PAMPA; assay type: ADME
[17] = molecular target: L-type calcium channel, benzothiazepine binding site (Rattus norvegicus, UniProt P22002+P27732+Q02485); assay: Inhibition of rat L-type calcium channel benzothiazepine binding site at 10 uM relative to control
[18] = Metabolic stability in mouse liver microsomes assessed as compound remaining at 1 hr; assay type: ADME, Microsome; conditions: read-out: Stability
[19] = Plasma protein binding in human at 10 uM; assay type: ADME, cell-free; conditions: read-out: PPB (converted)
[20] = Plasma protein binding in mouse at 10 uM; assay type: ADME, cell-free; conditions: read-out: PPB (converted)
[21] = Permeability of the compound in aqueous buffer at donor compartment pH 6.2 and acceptor compartment pH 7.4 by PAMPA; assay type: ADME
[22] = Metabolic stability in human plasma assessed as compound remaining at 3 hrs; assay type: ADME, cell-free; conditions: read-out: Stability
[23] = Hepatotoxicity against human Fa2N-4 cells; assay type: toxicity, cell-based; conditions: read-out: LC50 (the source's name)
[24] = Plasma protein binding in human at 1 uM; assay type: ADME, cell-free; conditions: read-out: PPB (converted)

Sequence of Dual specificity protein kinase CLK2 (P49760 whole entry): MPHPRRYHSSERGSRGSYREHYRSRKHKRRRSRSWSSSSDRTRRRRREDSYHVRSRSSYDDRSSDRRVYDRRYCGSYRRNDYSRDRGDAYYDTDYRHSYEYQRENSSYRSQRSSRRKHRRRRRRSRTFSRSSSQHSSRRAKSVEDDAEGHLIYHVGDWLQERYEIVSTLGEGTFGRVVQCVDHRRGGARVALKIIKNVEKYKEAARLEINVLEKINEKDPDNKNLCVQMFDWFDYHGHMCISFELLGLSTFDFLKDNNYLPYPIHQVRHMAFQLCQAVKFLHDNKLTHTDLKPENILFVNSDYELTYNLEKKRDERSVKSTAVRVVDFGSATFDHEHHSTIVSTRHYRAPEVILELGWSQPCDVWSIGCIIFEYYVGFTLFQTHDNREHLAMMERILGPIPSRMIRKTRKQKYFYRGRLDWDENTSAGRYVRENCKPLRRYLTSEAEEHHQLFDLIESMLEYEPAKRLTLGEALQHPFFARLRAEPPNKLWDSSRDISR
Sequence of Dual specificity protein kinase CLK1 (P49759 whole entry): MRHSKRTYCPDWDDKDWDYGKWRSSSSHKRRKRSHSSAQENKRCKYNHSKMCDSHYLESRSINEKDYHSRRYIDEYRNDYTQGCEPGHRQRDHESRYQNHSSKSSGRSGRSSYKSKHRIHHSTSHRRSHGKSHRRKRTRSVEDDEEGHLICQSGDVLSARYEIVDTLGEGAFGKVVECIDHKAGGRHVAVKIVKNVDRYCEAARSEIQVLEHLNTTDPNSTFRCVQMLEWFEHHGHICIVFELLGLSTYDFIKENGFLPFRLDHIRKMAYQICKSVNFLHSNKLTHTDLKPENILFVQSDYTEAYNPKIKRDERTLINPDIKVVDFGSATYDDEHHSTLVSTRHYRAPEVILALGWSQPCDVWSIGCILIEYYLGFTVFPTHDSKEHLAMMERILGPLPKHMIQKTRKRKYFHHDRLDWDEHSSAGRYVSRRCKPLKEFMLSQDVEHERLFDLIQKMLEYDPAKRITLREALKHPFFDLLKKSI
Sequence of Dual specificity protein kinase CLK3 (P49761 whole entry): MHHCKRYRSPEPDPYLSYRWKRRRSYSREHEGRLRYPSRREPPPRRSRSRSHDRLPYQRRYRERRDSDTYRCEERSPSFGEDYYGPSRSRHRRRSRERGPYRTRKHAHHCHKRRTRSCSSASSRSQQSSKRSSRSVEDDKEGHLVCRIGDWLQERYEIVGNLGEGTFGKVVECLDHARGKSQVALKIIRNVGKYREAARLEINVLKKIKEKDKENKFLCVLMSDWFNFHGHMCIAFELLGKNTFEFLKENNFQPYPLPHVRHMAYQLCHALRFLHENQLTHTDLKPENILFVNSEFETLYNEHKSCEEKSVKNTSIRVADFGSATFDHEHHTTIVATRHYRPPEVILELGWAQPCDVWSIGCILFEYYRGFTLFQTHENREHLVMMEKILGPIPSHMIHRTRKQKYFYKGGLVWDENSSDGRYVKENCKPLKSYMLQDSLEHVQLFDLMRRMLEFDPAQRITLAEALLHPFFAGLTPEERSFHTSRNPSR
Sequence of Dual specificity tyrosine-phosphorylation-regulated kinase 1B (Q9Y463 whole entry): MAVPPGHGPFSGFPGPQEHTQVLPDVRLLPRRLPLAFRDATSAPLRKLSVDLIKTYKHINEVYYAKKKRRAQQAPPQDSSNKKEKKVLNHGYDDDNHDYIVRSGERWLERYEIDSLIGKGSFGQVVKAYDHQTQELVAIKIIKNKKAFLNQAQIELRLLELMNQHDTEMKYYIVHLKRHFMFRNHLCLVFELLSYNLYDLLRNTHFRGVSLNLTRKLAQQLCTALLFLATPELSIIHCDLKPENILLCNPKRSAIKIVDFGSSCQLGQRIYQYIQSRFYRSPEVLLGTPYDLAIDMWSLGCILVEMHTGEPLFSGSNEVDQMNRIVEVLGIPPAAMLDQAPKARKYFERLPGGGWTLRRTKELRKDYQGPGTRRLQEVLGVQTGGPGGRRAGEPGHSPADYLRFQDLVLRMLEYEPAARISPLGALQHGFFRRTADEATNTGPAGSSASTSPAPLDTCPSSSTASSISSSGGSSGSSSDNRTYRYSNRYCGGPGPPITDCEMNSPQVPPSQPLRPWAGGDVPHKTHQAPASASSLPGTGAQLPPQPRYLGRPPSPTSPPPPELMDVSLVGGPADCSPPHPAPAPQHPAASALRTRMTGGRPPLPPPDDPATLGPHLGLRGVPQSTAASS
T2 sequence (Q9HAZ1 whole entry): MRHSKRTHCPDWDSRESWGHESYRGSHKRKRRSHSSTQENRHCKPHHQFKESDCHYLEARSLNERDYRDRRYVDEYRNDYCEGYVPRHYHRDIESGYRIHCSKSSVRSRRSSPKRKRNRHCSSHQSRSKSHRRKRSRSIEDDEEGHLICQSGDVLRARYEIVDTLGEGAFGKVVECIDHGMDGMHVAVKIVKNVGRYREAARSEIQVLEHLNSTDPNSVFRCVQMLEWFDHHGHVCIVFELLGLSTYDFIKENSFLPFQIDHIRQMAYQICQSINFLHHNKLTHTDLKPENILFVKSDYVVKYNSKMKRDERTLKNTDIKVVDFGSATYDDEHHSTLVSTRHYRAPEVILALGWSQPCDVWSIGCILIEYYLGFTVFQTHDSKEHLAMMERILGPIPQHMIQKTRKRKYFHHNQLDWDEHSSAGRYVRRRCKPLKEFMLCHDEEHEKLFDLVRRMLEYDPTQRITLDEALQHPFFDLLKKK
Sequence of hERG (KCNH2) (Q12809 whole entry): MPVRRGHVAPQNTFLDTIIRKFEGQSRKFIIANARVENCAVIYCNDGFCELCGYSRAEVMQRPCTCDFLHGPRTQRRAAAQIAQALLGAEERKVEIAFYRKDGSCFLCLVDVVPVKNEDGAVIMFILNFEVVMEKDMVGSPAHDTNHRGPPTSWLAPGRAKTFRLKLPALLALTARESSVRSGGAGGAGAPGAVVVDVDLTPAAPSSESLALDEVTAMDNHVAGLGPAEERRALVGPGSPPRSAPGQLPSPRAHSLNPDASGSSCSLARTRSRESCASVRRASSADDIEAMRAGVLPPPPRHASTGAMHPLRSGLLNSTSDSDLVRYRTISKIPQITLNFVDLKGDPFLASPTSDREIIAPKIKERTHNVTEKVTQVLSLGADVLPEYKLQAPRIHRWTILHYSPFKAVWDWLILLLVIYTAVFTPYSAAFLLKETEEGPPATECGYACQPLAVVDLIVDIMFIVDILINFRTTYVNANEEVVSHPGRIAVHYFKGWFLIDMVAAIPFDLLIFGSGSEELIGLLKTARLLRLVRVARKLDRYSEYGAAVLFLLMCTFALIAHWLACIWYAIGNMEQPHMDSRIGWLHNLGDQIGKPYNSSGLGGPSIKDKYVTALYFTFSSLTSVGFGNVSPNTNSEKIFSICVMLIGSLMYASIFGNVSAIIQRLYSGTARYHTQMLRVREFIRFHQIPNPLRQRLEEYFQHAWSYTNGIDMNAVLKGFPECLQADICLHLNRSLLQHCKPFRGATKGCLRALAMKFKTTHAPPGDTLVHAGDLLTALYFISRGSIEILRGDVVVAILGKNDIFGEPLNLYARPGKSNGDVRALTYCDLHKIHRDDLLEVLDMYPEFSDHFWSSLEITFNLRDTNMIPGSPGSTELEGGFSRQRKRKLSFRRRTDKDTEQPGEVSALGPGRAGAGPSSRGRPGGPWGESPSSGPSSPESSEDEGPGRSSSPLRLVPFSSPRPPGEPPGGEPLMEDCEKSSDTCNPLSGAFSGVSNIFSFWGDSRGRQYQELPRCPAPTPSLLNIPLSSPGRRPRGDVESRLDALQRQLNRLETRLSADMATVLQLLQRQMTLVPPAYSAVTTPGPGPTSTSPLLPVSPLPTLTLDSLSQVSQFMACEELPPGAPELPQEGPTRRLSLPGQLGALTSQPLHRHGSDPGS

SMILES	pIC50 [1]	pIC50 [2]	pIC50 [3]	pIC50 [4]	pIC50 [5]	pIC50 [6]	pIC50 [7]	pIC50 [8]	other results
c1cncc(CNc2nccc(-c3ccc4[nH]ncc4c3)n2)c1	7.14	6.34	7.03	6.82	7.22	5.57	7.52	7.21	–
FC(F)(F)c1cccc(Nc2nccc(-c3ccc4c(c3)OCO4)n2)c1	7.47	7.28	7.74	7.15	7.38	< 5.00	7.15	8.00	–
Clc1cc(Cl)cc(CNc2ncncc2-c2ccc3c(c2)OCO3)c1	7.17	6.64	5.94	5.59	7.17	< 5.00	6.89	6.55	fraction unbound at 1 µM [9]: 0.0051; solubility [10]: 1.15 µM (≈ 0.43 µg/mL); inhibition at 10 µM [11]: 44%; permeability [12]: 1150 ×10⁻⁶ cm/s; solubility [13]: 1.71 µM (≈ 0.64 µg/mL); remaining at 1 h [14]: 1.3%; remaining at 3 h [15]: 86.7%; permeability [16]: 2220 ×10⁻⁶ cm/s; inhibition at 10 µM [17]: 26%; remaining at 1 h [18]: 0.54%; fraction unbound at 10 µM [19]: 0.0022; fraction unbound at 10 µM [20]: 0.0053; permeability [21]: 1360 ×10⁻⁶ cm/s; remaining at 3 h [22]: 85.5%; CC50 [23]: > 50000 nM; fraction unbound at 1 µM [24]: 0.0065
Clc1ccc(CNc2nccc(-c3ccc4[nH]ncc4c3)n2)cc1Cl	7.39	6.72	6.90	6.48	7.52	5.53	7.52	6.89	–

Stronger by pIC50 [1], values ahead:

pIC50 [1]	pIC50 [2]	pIC50 [3]	pIC50 [4]	pIC50 [5]	pIC50 [6]	pIC50 [7]	pIC50 [8]	SMILES	other results
7.62	7.52	6.95	6.09	7.74	5.49	7.10	7.10	Brc1ccc(CNc2nccc(-c3ccc4c(c3)OCO4)n2)cc1Br	–
7.80	7.41	7.26	6.68	7.89	< 5.00	6.92	7.74	Clc1ccc(CNc2nccc(-c3ccc4c(c3)OCCO4)n2)cc1Cl	–
7.96	7.22	7.92	7.40	7.80	5.83	7.70	8.15	c1cncc(CNc2nccc(-c3ccc4c(c3)OCO4)n2)c1	–
8.10	7.70	7.42	6.80	7.85	5.44	7.40	7.59	Clc1ccc(CNc2nccc(-c3ccc4c(c3)OCO4)n2)cc1Cl	–
8.70	7.64	8.15	–	–	< 5.00	–	–	Clc1cc(Cl)cc(CNc2nccc(-c3ccc4c(c3)OCO4)n2)c1	–
